One assay concerns the target NmAPN (Neisseria meningitidis, UniProt Q9JYV4). Briefly: biochemical. Type of assay: biochemical, Neisseria meningitides. Particulars: for mode of inhibition: Lineweaver-Burk plot.
A further assay addresses porcine kidney APN. Particulars: cited from earlier work.
A further assay has as its target PfAPN. The following applies: Plasmodium falciparum APN; cited from earlier work.
For assay [1], the target named is T1, Neisseria meningitides alanine aminopeptidase (NmAPN) (Neisseria meningitidis, UniProt Q9JYV4).
T1 sequence (Q9JYV4 1-867): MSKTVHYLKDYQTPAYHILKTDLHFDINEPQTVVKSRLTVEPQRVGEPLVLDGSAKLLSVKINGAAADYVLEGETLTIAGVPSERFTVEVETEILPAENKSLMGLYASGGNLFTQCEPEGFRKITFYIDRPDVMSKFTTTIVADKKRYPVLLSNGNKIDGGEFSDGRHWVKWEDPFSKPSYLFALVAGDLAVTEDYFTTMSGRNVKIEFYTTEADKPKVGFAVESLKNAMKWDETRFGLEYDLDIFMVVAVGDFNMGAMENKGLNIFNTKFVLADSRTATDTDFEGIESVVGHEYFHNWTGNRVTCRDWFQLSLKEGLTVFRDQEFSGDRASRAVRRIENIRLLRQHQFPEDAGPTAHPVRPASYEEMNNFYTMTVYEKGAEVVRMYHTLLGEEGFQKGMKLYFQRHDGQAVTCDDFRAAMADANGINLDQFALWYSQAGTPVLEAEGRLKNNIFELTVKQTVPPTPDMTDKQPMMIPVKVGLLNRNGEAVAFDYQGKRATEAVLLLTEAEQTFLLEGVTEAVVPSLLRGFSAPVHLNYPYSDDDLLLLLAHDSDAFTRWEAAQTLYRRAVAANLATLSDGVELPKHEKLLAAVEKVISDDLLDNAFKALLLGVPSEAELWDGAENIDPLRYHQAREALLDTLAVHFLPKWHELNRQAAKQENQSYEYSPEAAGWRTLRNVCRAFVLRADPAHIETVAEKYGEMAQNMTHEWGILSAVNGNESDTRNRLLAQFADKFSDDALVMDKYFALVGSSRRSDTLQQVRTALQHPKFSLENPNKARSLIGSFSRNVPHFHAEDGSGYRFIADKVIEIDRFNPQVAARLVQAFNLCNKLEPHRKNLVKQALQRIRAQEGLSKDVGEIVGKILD
Briefly: Kinetic parameters determination. It counts as biochemical. The following applies: ACC substrate, 50 mM Tris-HCl pH 7.5, 37 °C, enzyme 1.13 nM.

Assay [2] has as its target T1, Neisseria meningitides alanine aminopeptidase (NmAPN). Type of assay: biochemical. The following applies: substrate 3 μM, enzyme 1.37 nM, pH 7.5.

Read-outs that look alike come from different tables or passages of the source.

As a reminder, the IC50 is the concentration needed to halve the response being measured. The low end stands for higher potency, the high end for lower potency. By Ki is commonly meant the dissociation constant of the complex between target and ligand, obtained from inhibition or displacement. As to `NC(CCc1ccccc1)P(=O)(O)CC(Cc1ccccc1)C(=O)O` (stereo not shown) [Compound 4], on NmAPN, the 50% inhibitory concentration (IC50) came to 397 ± 24 nM; the Ki came out at 302 ± 18 nM; the mode of inhibition result was “reversible, competitive and tight-binding inhibitors”. The Ki at porcine kidney APN is 276 nM.

`NC(CCc1ccccc1)P(=O)(O)CC(Cc1ccc(O)cc1)C(=O)O` (stereo not shown) [Compound 5] returned an IC50 against NmAPN of 70 ± 7 nM. On NmAPN, the mode of inhibition entry is “reversible, competitive and tight-binding inhibitors”. Besides, the values for the Ki on porcine kidney APN and on PfAPN were 36 nM and 232 nM, respectively.

`NC(CCc1ccccc1)[PH](=O)O` (stereo not shown) [Compound 3]: at NmAPN, the concentration for half-maximal inhibition (IC50) came out at 1910 ± 50 nM.

As a reminder, the Km is the concentration of substrate that gives half-maximal velocity. In the case of `NC(=O)CC[C@H](N)C(=O)Nc1ccc2c(CC(N)=O)cc(=O)oc2c1` [L-Gln], in assay [1], the Km is more than 250 µM.

As to `NCC(=O)Nc1ccc2c(CC(N)=O)cc(=O)oc2c1` [Gly], the Michaelis-Menten constant (Km) in assay [1] is more than 250 µM.

For the compound `NC(CCc1ccccc1)P(=O)(O)O` (stereo not shown) [Compound 2], on NmAPN, the concentration for half-maximal inhibition (IC50) amounted to 1660 ± 70 nM.

With `NC(CCc1ccccc1)P(=O)(O)CNC(Cc1ccc(O)cc1)C(=O)O` (stereo not shown) [Compound 6], the 50% inhibitory concentration (IC50) on NmAPN (L-Arg-ACC 20 μM, enzyme 0.85 nM, 30 min preincubation, 37 °C) worked out at 3290 ± 150 nM. For the same compound, on NmAPN (calculated from IC50 by Cheng-Prusoff equation, L-Arg-ACC 20 μM), the inhibitory constant (Ki) was 2510 ± 110 nM.

As for `NC(=O)Cc1cc(=O)oc2cc(NC(=O)[C@@H](N)CCC(=O)OCc3ccccc3)ccc12` [L-Glu(Bzl)], the “rate of hydrolysis, proportional to kcat/Km, as percentage of the best substrate cleavage (L-hArg-ACC, 100%)” value in assay [2] is 38.5–74.0%.

As for `N[C@@H](Cc1ccc(OCC(=O)O)cc1)C(=O)O` [4(1-carboxymethoxy)-L-Phe], in assay [2], the “hydrolysis of ACC substrate by NmAPN (in words)” value is recorded as “not hydrolyzed”.

Consider `N=C(NCCC[C@H](N)C(=O)Nc1ccc2c(CC(N)=O)cc(=O)oc2c1)N[N+](=O)[O-]` [L-Arg(NO2)], for which the “rate of hydrolysis, proportional to kcat/Km, as percentage of the best substrate cleavage (L-hArg-ACC, 100%)” value in assay [2] is 38.5–74.0%.

As for `NCCC(=O)O` [β-Ala], in assay [2], the “hydrolysis of ACC substrate by NmAPN (in words)” value is “not hydrolyzed”.

At NmAPN, `N=C(N)NCCCC(N)P(=O)(O)O` (stereo not shown) [Compound 1] came in with a half-maximal inhibitory concentration (IC50) of 1910 ± 180 nM and a Ki of 1460 ± 140 nM.

In the case of `NC(=O)Cc1cc(=O)oc2cc(NC(=O)[C@@H](N)Cc3ccc(Br)cc3)ccc12` [Compound 4-Br-L-Phe], the Km in assay [1] is more than 250 µM.

As for `CC[C@H](N)C(=O)Nc1ccc2c(CC(N)=O)cc(=O)oc2c1` [L-Abu], the “rate of hydrolysis, proportional to kcat/Km, as percentage of the best substrate cleavage (L-hArg-ACC, 100%)” value in assay [2] was 20–40%.
